Assay [1] has as its system Plasmodium falciparum. Description: Antiplasmodial activity against chloroquine-sensitive Plasmodium falciparum 3D7 infected in type B+ human erythrocytes assessed as inhibition of sorbitol-induced hemolysis at 10 nM after 15 min by spectrophotometry. The assay is classed as functional. Set-up: scale not given: the % may be the effect or the level left.
Assay [2] has as its system Plasmodium falciparum. Nature of the assay: Antiplasmodial activity against chloroquine-sensitive Plasmodium falciparum 3D7 infected in type B+ human erythrocytes assessed as reduction of hemozoin formation at IC50 after 48 hrs relative to control. Set-up: scale not given: the % may be the effect or the level left. The assay is classed as functional.
For assay [3], the system named is Plasmodium falciparum. Description: Antiplasmodial activity against chloroquine-sensitive Plasmodium falciparum 3D7 infected in type B+ human erythrocytes assessed as inhibition of parasitemia after 48 hrs by Giemsa staining. The assay is classed as functional, organism-based. To be noted: 3D7, 48 h.
Assay [4] relates to Plasmodium falciparum. Nature of the assay: Antiplasmodial activity against chloroquine-sensitive Plasmodium falciparum 3D7 infected in type B+ human erythrocytes assessed as inhibition of schizont stage parasite after 12 hrs followed by incubation in drug-free medium for 48 hrs by stage specific inhibition assay relative to control. The assay is classed as functional.
Assay [5] deals with Plasmodium falciparum. Description: Antiplasmodial activity against chloroquine-sensitive Plasmodium falciparum 3D7 infected in type B+ human erythrocytes assessed as inhibition of trophozoite stage parasite after 18 hrs followed by incubation in drug-free medium for 48 hrs by stage specific inhibition assay relative to control. Type of assay: functional.
Assay [6] concerns Plasmodium falciparum. Nature of the assay: Antiplasmodial activity against chloroquine-sensitive Plasmodium falciparum 3D7 infected in type B+ human erythrocytes assessed as inhibition of sorbitol-induced hemolysis at 10 mM after 15 min by spectrophotometry. Type of assay: functional. Set-up: scale not given: the % may be the effect or the level left.
In assay [7] the test system is Plasmodium falciparum. Nature of the assay: Antiplasmodial activity against chloroquine-sensitive Plasmodium falciparum 3D7 infected in type B+ human erythrocytes assessed as inhibition of ring stage parasite after 18 hrs followed by incubation in drug-free medium for 48 hrs by stage specific inhibition assay relative to control. The assay is classed as functional.

Assay [8] relates to Plasmodium falciparum. Nature of the assay: Antiplasmodial activity against chloroquine-sensitive Plasmodium falciparum 3D7 infected in type B+ human erythrocytes assessed as inhibition of sorbitol-induced hemolysis at 10 uM after 15 min by spectrophotometry. The assay is classed as functional. Set-up: scale not given: the % may be the effect or the level left.
Assay [9] relates to Plasmodium falciparum. Nature of the assay: Antiplasmodial activity against chloroquine-sensitive Plasmodium falciparum 3D7 infected in type B+ human erythrocytes assessed as inhibition of sorbitol-induced hemolysis at 5 nM after 15 min by spectrophotometry. The assay is classed as functional. Set-up: scale not given: the % may be the effect or the level left.

From ChEMBL document CHEMBL1154149, “Antimalarial pharmacodynamics of chalcone derivatives in combination with artemisinin against Plasmodium falciparum in vitro” (Eur J Med Chem, 2009) come the findings set out here.

For `CCc1nc(N)nc(N)c1-c1ccc(Cl)cc1` [PYRIMETHAMINE], the figures for the Activity with Plasmodium falciparum [1] and in the assay on Plasmodium falciparum [2] were 92.2% and 56.3%, respectively.

On to `C=CC(C)(C)c1cc(/C=C/C(=O)c2ccc(O)cc2)c(OC)cc1O` [LICOAGROCHACONE A], for which the IC50 in the assay with Plasmodium falciparum [3] came to 4.2 nM.

For `O=C(/C=C/c1ccc(Cl)cc1)c1ccc(-n2cncn2)cc1`, the “inhibition (INH)” value in the assay on Plasmodium falciparum [4] was 40.1%; with Plasmodium falciparum [5] it was 65.8%; with Plasmodium falciparum [7], 48.7%. For the same compound, the Activity was determined as 47.8% in the assay with Plasmodium falciparum [2] and 36.1% in the assay on Plasmodium falciparum [6].

As for `O=C(/C=C/c1ccc(Cl)cc1)c1ccc(-n2cccc2)cc1`, the “inhibition (INH)” value in the assay on Plasmodium falciparum [4] stood at 48.9%; with Plasmodium falciparum [5], 61.5%; in the assay with Plasmodium falciparum [7] it was 51.4%. The Activity worked out at 48.8% in the assay with Plasmodium falciparum [2] and 85.9% in the assay on Plasmodium falciparum [6].

With `NS(=O)(=O)c1cc(C(=O)O)c(NCc2ccco2)cc1Cl` [FUROSEMIDE], the Activity with Plasmodium falciparum [8] was found to be 56.3%.

With `C[C@@H]1CC[C@H]2[C@@H](C)C(=O)O[C@@H]3O[C@@]4(C)CC[C@@H]1[C@]32OO4` [ARTEMISININ], the Activity with Plasmodium falciparum [2] amounted to 48.3%; in the assay with Plasmodium falciparum [9] it was 90.9%. The IC50 in the assay on Plasmodium falciparum [3] was found to be 4 nM.

`O=C(/C=C/c1ccc(Cl)cc1)c1ccc(-n2nnc3ccccc32)cc1`: the results for the “inhibition (INH)” value with Plasmodium falciparum [4], in the assay with Plasmodium falciparum [5] and in the assay with Plasmodium falciparum [7] were 41%, 70.9% and 47.9%, respectively. Moreover, the values for the Activity in the assay on Plasmodium falciparum [2] and with Plasmodium falciparum [6] were 47.7% and 90%, respectively.
